Here are results for 11 molecules from ChEMBL document CHEMBL1759841, “8-Hydroxynaphthalene-1,4-dione derivative as novel compound for glioma treatment” (Bioorg Med Chem Lett, 2011).

Assay [1] is described as follows: Inhibition of CK1.
Assay [2] can be described thus: Inhibition of CK2.
In assay [3] the target is T1, Aurora kinase A (Homo sapiens, UniProt O14965).
T1 sequence (O14965 whole entry): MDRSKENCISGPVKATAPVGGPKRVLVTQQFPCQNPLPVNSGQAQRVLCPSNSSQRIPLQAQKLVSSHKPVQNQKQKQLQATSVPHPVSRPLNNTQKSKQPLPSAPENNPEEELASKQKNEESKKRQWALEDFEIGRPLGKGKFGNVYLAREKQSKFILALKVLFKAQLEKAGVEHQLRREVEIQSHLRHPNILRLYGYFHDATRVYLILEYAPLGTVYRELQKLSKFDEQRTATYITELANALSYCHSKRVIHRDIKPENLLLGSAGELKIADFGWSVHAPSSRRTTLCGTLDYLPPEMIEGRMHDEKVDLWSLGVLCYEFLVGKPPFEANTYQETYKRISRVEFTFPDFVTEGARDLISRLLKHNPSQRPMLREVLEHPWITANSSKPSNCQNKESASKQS
Briefly: Inhibition of Aurora A.

Assay [4] addresses Dual specificity tyrosine-phosphorylation-regulated kinase 1A (Homo sapiens, UniProt Q13627). The assay can be described thus: Inhibition of DYRK1a.
Assay [5] in a line: Inhibition of PKA.

The IC50 is the midpoint of a concentration-inhibition curve. Higher therefore signals lower potency. As to `Cc1ccc(S(=O)(=O)Oc2ccc3ccc(O)cc3c2)cc1`, the IC50 in assay [1] and in assay [2] was over 40 µM in each case.

On to `CC1c2cc(Br)c(O)c(Br)c2OC(=O)C1Br` (stereo unspecified), for which the IC50 in assay [1] is over 40 µM; in assay [2] it was 2 µM.

With `O=C1NC(=O)C(=Cc2ccc(O)cc2O)C(=O)N1`, the IC50 in assay [1] and in assay [2] was over 40 µM each time.

On to `O=C1C=C(c2ccc(O)c(O)c2O)C(=O)c2c(O)ccc(O)c21`, for which the IC50 in assay [1] was over 40 µM; in assay [3], 6.2 µM; in assay [2], 3.5 µM; in assay [4], 21.4 µM.

Regarding `C[N+]1(Cc2cc(O)c3c(c2)C(=O)c2cccc(O)c2C3=O)CCOCC1`, the results for the IC50 in assay [1] and in assay [2] were 10 µM and over 40 µM, respectively.

`C[N+](C)(C)CC(=O)OCc1cc(O)c2c(c1)C(=O)c1cccc(O)c1C2=O`: the IC50 in assay [1] and in assay [2] was over 40 µM in each case.

Consider `CCN(CC)CCC(=O)Nc1ccc(O)c2c1C(=O)c1cccc(O)c1C2=O`, for which the IC50 in assay [1] and in assay [2] was over 40 µM throughout.

As to `O=C1C=C(c2ccc(O)c(O)c2O)C(=O)c2c1cccc2[N+](=O)[O-]`, the IC50 was over 40 µM in assay [1], 14 µM in assay [5], 4.8 µM in assay [3] and 23 µM in assay [2].

Turning to `O=c1ccc2cc(S(=O)(=O)N3CCNCC3)cc(Cl)c2o1`, the IC50 in assay [1] and in assay [2] was over 40 µM throughout.

For `Cc1coc2cc3oc(=O)c(NC(=O)CN)cc3cc12`, the IC50 in assay [1] and in assay [2] was over 40 µM each time.

In the case of `CN(C)c1ccc(C=C2C(=O)NC(=O)NC2=O)cc1`, the IC50 in assay [1] and in assay [2] was over 40 µM in each case.
